Laboratory results as given in ChEMBL document CHEMBL1777692, “Elucidation of common pharmacophores from analysis of targeted metabolites transported by the multispecific drug transporter-Organic anion transporter1 (Oat1)” (Bioorg Med Chem, 2011).

How the values were obtained:
[1] = molecular target: T1, Solute carrier family 22 member 6 (Rattus norvegicus, UniProt O35956); experiment: Inhibition of rat Oat1 expressed in Xenopus oocytes; assay type: cell-based, Oocyte
T1 sequence (O35956 whole entry): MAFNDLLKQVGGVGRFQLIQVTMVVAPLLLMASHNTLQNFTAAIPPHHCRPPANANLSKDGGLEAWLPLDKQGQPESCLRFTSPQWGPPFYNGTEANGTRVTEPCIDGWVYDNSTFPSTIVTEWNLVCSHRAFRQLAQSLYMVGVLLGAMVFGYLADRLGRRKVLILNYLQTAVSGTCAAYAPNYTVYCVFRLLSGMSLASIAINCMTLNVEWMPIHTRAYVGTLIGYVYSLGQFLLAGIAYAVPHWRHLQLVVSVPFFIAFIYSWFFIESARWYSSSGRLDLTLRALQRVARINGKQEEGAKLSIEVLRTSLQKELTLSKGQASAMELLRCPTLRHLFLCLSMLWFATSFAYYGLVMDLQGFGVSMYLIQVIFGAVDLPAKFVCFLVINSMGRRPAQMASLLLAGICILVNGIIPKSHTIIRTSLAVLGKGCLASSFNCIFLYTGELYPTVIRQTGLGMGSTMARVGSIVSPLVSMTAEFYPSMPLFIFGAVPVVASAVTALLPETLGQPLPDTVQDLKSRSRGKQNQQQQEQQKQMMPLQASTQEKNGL

[2] = molecular target: T1, Solute carrier family 22 member 6; experiment: Inhibition of rat Oat1 expressed in pig […] cells; assay type: cell-based

Ki [1] [µM]	Ki [2] [µM]	Compound
1100	–	CCSC[C@H](NC(C)=O)C(=O)O
–	> 100	CCc1cccc2c3c([nH]c12)C(CC)(CC(=O)O)OCC3 (centres undefined) [ETODOLAC]
–	52	CC[C@H](C)C(=O)O[C@H]1C[C@H](O)C=C2C=C[C@H](C)[C@H](CC[C@@H](O)C[C@@H](O)CC(=O)O)[C@H]21 [PRAVASTATIN]

Compound	Ki [1] [µM]	Ki [2] [µM]
C[C@]12CC[C@@H]3c4ccc(O)cc4CC[C@H]3[C@@H]1CC[C@@H]2O[C@@H]1O[C@H](C(=O)O)[C@@H](O)[C@H](O)[C@H]1O [ESTRADIOL 17B GLUCURONIDE]	–	> 300
